In patent publication US20110230477A1, “COMPOUNDS, PHARMACEUTICAL COMPOSITION AND METHODS FOR USE IN TREATING METABOLIC DISORDERS” (Euroscreen S.A., priority 2008, published 2011):

These compounds were tested against T1, human GPR43 receptor (hGPR43) (Homo sapiens, UniProt O15552) (assay: GTPγS binding assay (SPA method)). Settings: membranes expressing hGPR43; assay performed in the presence of SCFA; read-out: EC50 (nM) in GTPγ35S assay.
T1 construct: expressed in transfected cells
T1 sequence (O15552 1-330): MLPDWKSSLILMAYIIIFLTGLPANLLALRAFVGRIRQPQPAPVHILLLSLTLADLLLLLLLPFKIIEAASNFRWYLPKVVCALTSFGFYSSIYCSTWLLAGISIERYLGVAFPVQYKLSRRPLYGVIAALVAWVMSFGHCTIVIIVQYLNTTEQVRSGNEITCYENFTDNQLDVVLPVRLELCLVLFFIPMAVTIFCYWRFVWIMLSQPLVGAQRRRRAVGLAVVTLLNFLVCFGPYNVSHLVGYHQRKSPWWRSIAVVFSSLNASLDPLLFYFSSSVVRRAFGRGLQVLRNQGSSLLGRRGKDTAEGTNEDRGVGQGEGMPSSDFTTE
Assay type: biochemical
Excerpt: The following assay can be used for determination of GPR43 activation. When a GPCR is in its active state, either as a result of ligand binding or constitutive activation, the receptor couples to a G protein and stimulates the release of GDP and subsequent binding of GTP to the G protein. The alpha subunit of the G protein-receptor complex acts as a GTPase and slowly hydrolyses the GTP to GDP, at which point the receptor normally is deactivated. Activated receptors continue to exchange GDP for GTP. […] The assay uses the ability of GPCR to stimulate [^35S]GTPγS binding to membranes expressing the relevant receptors. The assay can, therefore, be used in the direct identification method to screen candidate compounds to endogenous or not endogenous GPCR.
Membrane extracts were prepared from cells expressing the human GPR43 receptor (hGPR43) as follows: the medium was aspirated and the cells were scraped from the plates in Ca^++ and Mg^++-free Phosphate-buffered saline (PBS). The cells were then centrifuged for 3 min at 1500 g and the pellets were resuspended in buffer A (15 mM Tris-HCl pH 7.5, 2 mM MgCl2, 0.3 mM EDTA, 1 mM EGTA) and homogenized in a glass homogenizer. […] Protein content was assayed by the Folin method.
The assay was performed in the presence of SCFA, and was used to determine the activity of the compounds of the invention.
The [^35S]GTPγS assay was incubated in 20 mM HEPES pH7.4, 100 mM NaCl, 10 μg/ml saponin, 30 mM of MgCl2, 10 μM of GDP, 5 μg membrane-expressing hGPR43, 250 μg of wheatgerm agglutinin beads (Amersham, ref: RPNQ001), a range concentration of compounds (from 30 μM to 1 nM) in a final volume of 100 μl for 30 min at room temperature. The SCFA propionate was used at 1 mM final concentration as positive control. The plates were then centrifuged for 10 minutes at 2000 rpm, incubated for 2 hours at room temperature and counted for 1 min in a scintillation counter (TopCount, PerkinElmer).

| Structure (SMILES) | EC50 [nM] |
| --- | --- |
| O=C(O)C[C@@H](Cc1ccccc1)C(=O)Nc1nc(-c2ccccc2)ns1 [Compound 11, (R)-3-benzyl-4-oxo-4-(3-phenyl-1,2,4-thiadiazol-5-ylamino)butanoic acid] | 680 |
| CN(C(=O)[C@@H](CC(=O)O)CC1CCCC1)c1nc(-c2ccccc2-c2ccc(N3CCOCC3)nc2)cs1 [Compound 171, (R)-3-(cyclopentylmethyl)-4-(methyl(4-(2-(6-morpholinopyridin-3-yl)phenyl)thiazol-2-yl)amino)-4-oxobutanoic acid] | 50 |
| CN(C(=O)[C@@H](CC(=O)O)CC1CCCO1)c1nc(-c2ccccc2Cl)cs1 (stereo partly drawn) [Compound 154, (3R)-4-((4-(2-chlorophenyl)thiazol-2-yl)(methyl)amino)-4-oxo-3-((tetrahydrofuran-2-yl)methyl)butanoic acid] | 832 |
| CN(C(=O)[C@@H](CC(=O)O)Cc1ccccc1)c1nc(-c2ccccc2Cl)ns1 [Compound 83, (R)-3-benzyl-4-((3-(2-chlorophenyl)-1,2,4-thiadiazol-5-yl)(methyl)amino)-4-oxobutanoic acid] | 98 |
| COc1ccc(-c2ccccc2-c2csc(N(C)C(=O)[C@@H](CC(=O)O)CC3CCOCC3)n2)cn1 [Compound 160, (R)-4-((4-(2-(6-methoxypyridin-3-yl)phenyl)thiazol-2-yl)(methyl)amino)-4-oxo-3-((tetrahydro-2H-pyran-4-yl)methyl)butanoic acid] | 244 |
| COc1ccc(-c2ccccc2-c2csc(N(C(=O)[C@@H](CC(=O)O)Cc3ccccc3)C3CC3)n2)cn1 [Compound 178, (R)-3-benzyl-4-(cyclopropyl(4-(2-(6-methoxypyridin-3-yl)phenyl)thiazol-2-yl)amino)-4-oxobutanoic acid] | 30 |
| CCN(C(=O)[C@@H](CC(=O)O)Cc1ccccc1)c1nc(-c2ccccc2Cl)cs1 [Compound 96, (R)-3-benzyl-4-((4-(2-chlorophenyl)thiazol-2-yl)(ethyl)amino)-4-oxobutanoic acid] | 249 |
| COc1ccc(-c2ccccc2-c2csc(N(C)C(=O)[C@@H](CC(=O)O)Cc3ccccc3)n2)cc1 [Compound 129, (R)-3-benzyl-4-((4-(4′-methoxy-[1,1′-biphenyl]-2-yl)thiazol-2-yl)(methyl)amino)-4-oxobutanoic acid] | 858 |
| O=C(O)C[C@@H](Cc1ccccc1)C(=O)Nc1cnc(-c2ccccc2Cl)cn1 [Compound 197, (R)-3-benzyl-4-((5-(2-chlorophenyl)pyrazin-2-yl)amino)-4-oxobutanoic acid] | 1910 |
| CN(C(=O)[C@@H](CC(=O)O)Cc1ccccc1)c1nc(-c2ccccc2-c2ccc(N3CCCC3)nc2)cs1 [Compound 131, (R)-1-(5-(2-(2-(2-benzyl-3-carboxy-N-methylpropanamido)thiazol-4-yl)phenyl)pyridin-2-yl)pyrrolidin-1-ium 2,2,2-trifluoroacetate] | 96 |
| O=C(O)C[C@H](C(=O)Nc1nc(-c2ccccc2Cl)cs1)c1ccccc1 [Compound 9, (S)-4-(4-(2-chlorophenyl)thiazol-2-ylamino)-4-oxo-3-phenylbutanoic acid] | 60 |
| CN(C(=O)[C@@H](CC(=O)O)Cc1ccccc1)c1nc(-c2ccccc2-c2ccoc2)cs1 [Compound 135, (R)-3-benzyl-4-((4-(2-(furan-3-yl)phenyl)thiazol-2-yl)(methyl)amino)-4-oxobutanoic acid] | 796 |
| CN(C(=O)C(CC(=O)O)Cc1ccco1)c1nc(-c2ccccc2Cl)cs1 (stereo not drawn) [Compound 143] | 77 |
| CN(C(=O)[C@@H](CC(=O)O)Cc1ccccc1)c1nc(-c2ccccc2-c2ccc(OC3CCOCC3)nc2)cs1 [Compound 141, (R)-3-benzyl-4-(methyl(4-(2-(6-((tetrahydro-2H-pyran-4-yl)oxy)pyridin-3-yl)phenyl)thiazol-2-yl)amino)-4-oxobutanoic acid] | 996 |
| N#Cc1ccc(-c2csc(NC(=O)[C@@H](CC(=O)O)Cc3ccccc3)n2)cc1 [Compound 8, (R)-3-benzyl-4-(4-(4-cyanophenyl)thiazol-2-ylamino)-4-oxobutanoic acid] | 563 |
